The values that follow come from PMC8528049, “Expanding the scope of native chemical ligation – templated small molecule drug synthesis via benzanilide formation” (Chemical Science, 2021).

Each structure is given as a SMILES string. Like-named read-outs stand apart in the source and are kept apart here.

For one experiment, the system named is Bcr–Abl. The note with it: cited from earlier work.
In experiment [1] the target is non-phosphorylated Abl1 kinase (Homo sapiens, UniProt P00519). In words: KdELECT assay (DiscoverX), dissociation constants with Abl1 kinase.
The subject of the next experiment is K562 cells. The experiment is described as follows: alamarBlue cell viability assay on K562 cells. It is filed as cell-based. The note with it: Homo sapiens. The procedure:
Cell culture and cell viability assay
K562 cells were cultured in DMEM supplemented with 10% FCS, 4 mM glutamine, 100 U · mL-1 […]
assays , c e l ls were seeded on a 96-well plate (10000 cells/well), followed by the immediate addition of the test compounds (100 µL, serial dilutions in medium). Untreated cells were used as controls and complete medium without cells was used to determine the background signal o f the assay . Afte r […]
1:10, v:v, in PBS) was added to each well. […]
reader from PerkinElmer (Waltham, USA). IC 50 values were calculated from triplicates w it h a 1 3 -po i n t dose-response curve using the Hill equation. […]
(Alamar Blue is a resazurin reagent that responds to reducing activity.)

The mark [2] stands for this setting: Dissociation constant (Kd) of complexes formed with Abl1 kinase, non-phosphorylated Abl1 kinase, calculated from quadruplicates, mean ± SD.
The mark [3] stands for this setting: Kd, Replicate 1, non-phosphorylated Abl1 kinase, single replicate 1, Hill equation.
Where [4] appears, read: Kd, Replicate 2, non-phosphorylated Abl1 kinase, single replicate 2, Hill equation.
[5] abbreviates: Kd, Replicate 3, non-phosphorylated Abl1 kinase, single replicate 3, Hill equation.
The mark [6] stands for this setting: Kd, Replicate 4, non-phosphorylated Abl1 kinase, single replicate 4, Hill equation.
[7] abbreviates: 96 h, single replicate 1, read-out: IC50, Replicate 1.
The mark [8] stands for this setting: 96 h, single replicate 2, read-out: IC50, Replicate 2.
[9] abbreviates: 96 h, single replicate 3, read-out: IC50, Replicate 3.
Setting [10] is: 96 h treatment, calculated from triplicates, read-out: IC50 on K562 cells, determined by alamarBlue assay.

non-phosphorylated Abl1 kinase, sequence (P00519 whole entry): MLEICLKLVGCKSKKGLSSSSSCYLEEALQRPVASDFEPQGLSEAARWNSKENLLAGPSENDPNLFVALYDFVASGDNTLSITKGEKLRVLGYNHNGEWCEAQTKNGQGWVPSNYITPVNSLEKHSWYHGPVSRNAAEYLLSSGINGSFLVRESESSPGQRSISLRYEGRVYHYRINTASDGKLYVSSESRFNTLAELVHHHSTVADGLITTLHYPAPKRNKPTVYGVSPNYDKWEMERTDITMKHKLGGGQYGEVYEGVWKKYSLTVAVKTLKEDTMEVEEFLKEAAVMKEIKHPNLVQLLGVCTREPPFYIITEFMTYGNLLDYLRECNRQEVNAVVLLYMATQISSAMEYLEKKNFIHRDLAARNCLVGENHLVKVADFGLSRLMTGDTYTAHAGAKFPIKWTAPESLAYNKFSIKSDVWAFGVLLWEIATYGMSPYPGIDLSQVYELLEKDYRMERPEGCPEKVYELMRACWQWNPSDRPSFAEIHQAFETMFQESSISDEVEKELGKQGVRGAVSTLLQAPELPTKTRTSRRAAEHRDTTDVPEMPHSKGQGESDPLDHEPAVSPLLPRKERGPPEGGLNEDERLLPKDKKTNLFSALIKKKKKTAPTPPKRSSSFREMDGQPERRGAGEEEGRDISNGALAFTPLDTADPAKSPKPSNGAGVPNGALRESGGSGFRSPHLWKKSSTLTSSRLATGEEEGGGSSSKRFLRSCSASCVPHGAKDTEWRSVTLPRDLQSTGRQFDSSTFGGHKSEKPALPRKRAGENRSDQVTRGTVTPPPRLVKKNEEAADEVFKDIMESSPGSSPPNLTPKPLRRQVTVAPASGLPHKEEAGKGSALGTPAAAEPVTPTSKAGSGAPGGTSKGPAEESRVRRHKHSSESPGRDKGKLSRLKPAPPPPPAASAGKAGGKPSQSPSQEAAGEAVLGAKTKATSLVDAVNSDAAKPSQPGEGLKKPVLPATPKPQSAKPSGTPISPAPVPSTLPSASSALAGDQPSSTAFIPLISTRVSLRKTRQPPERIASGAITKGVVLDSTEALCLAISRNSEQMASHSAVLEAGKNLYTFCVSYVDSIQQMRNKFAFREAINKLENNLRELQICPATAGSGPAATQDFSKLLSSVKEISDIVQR

The term Kd denotes the constant that tells how readily two partners part at equilibrium. For the compound `Cc1ccc(C(=O)Nc2ccc(CN3CCN(C)CC3)c(C(F)(F)F)c2)cc1C#Cc1cnc2[nH]ncc2c1` [GZD824 (3), GZD824, reference compound], in the experiment on Bcr–Abl, the “IC50 for inhibition of kinases such as Bcr–Abl” value is on record as “low nanomolar range”. In addition, the dissociation constant Kd was 0.6 ± 0.3 nM in experiment [1] (setting [2]); 1 nM in experiment [1] (setting [3]); 0.7 nM in experiment [1] (setting [4]); 0.3 nM in experiment [1] (setting [5]); 0.4 nM in experiment [1] (setting [6]).
As to `Cc1ccc(C(=O)Nc2cc(C(F)(F)F)c(CN3CCN(C)CC3)cc2S)cc1C#Cc1cnc2[nH]ncc2c1` [GZD824-SH (3a)], the equilibrium dissociation constant (Kd) was 0.9 ± 0.4 nM in experiment [1] (setting [2]); 1.2 nM in experiment [1] (setting [3]); 1.4 nM in experiment [1] (setting [4]); 0.5 nM in experiment [1] (setting [5]); 0.5 nM in experiment [1] (setting [6]).
Consider `Cc1cn(-c2cc(NC(=O)c3ccc(C)c(Nc4nccc(-c5cccnc5)n4)c3)cc(C(F)(F)F)c2)cn1` [Nilotinib (1), Nilotinib], for which, in the experiment with Bcr–Abl, the “IC50 for inhibition of kinases such as Bcr–Abl” value is on record as “low nanomolar range”.
Consider `Cc1cn(-c2cc(C(F)(F)F)cc(NC(=O)c3ccc(C)c(Nc4nccc(-c5cccnc5)n4)c3)c2S)cn1` [Nilotinib-SH (1a)], for which the Kd was 881 ± 151 nM in experiment [1] (setting [2]); 1140 nM in experiment [1] (setting [3]); 793 nM in experiment [1] (setting [4]); 791 nM in experiment [1] (setting [5]); 797 nM in experiment [1] (setting [6]).
Broadly, the IC50 is the concentration that inhibits the measured activity by half. On to `Cc1ccc(C(=O)Nc2ccc(CN3CCN(C)CC3)c(C(F)(F)F)c2)cc1C#Cc1cnc2cccnn12` [Ponatinib (2), Ponatinib, reference compound], for which the concentration for half-maximal inhibition (IC50) in the experiment on K562 cells (setting [7]) was 3.5 nM; in the experiment on K562 cells (setting [8]) it was 3.6 nM; in the experiment with K562 cells (setting [9]), 3.1 nM; in the experiment with K562 cells (setting [10]), 3.4 ± 0.2 nM.
For the compound `Cc1ccc(-c2nc3cc(C(F)(F)F)c(CN4CCN(C)CC4)cc3s2)cc1C#Cc1cnc2cccnn12` [Ponatinib-BT (2b)], the concentration for half-maximal inhibition (IC50) in the experiment on K562 cells (setting [7]) is 118 nM; in the experiment on K562 cells (setting [8]) it was 115 nM; with K562 cells (setting [9]), 126 nM; with K562 cells (setting [10]), 120 ± 5 nM. Besides, the Kd in experiment [1] (setting [2]) was 8.4 ± 2.3 nM; in experiment [1] (setting [3]), 11.6 nM; in experiment [1] (setting [4]), 9.5 nM; in experiment [1] (setting [5]) it was 6.4 nM; in experiment [1] (setting [6]), 6.2 nM.
For `Cc1ccc(C(=O)Nc2cc(C(F)(F)F)c(CN3CCN(C)CC3)cc2S)cc1C#Cc1cnc2cccnn12` [Ponatinib-SH (2a)], the 50% inhibitory concentration (IC50) with K562 cells (setting [7]) was 392 nM; with K562 cells (setting [8]), 343 nM; in the experiment on K562 cells (setting [9]) it was 326 nM; with K562 cells (setting [10]) it was 354 ± 28 nM. In addition, the Kd in experiment [1] (setting [2]) is 0.6 nM; in experiment [1] (setting [3]), 0.5 nM; in experiment [1] (setting [4]), 0.7 nM; in experiment [1] (setting [5]) it was 0.6 nM; in experiment [1] (setting [6]) it was 0.6 nM.
